Test results from US20230321237A1, “REGULATORY T CELL EPITOPES” (EPIVAX, INC., priority 2020, published 2023).

Tests used:
[1] = tested on: CD4 T cells in donor PBMC stimulated with Tetanus Toxoid; format: cell-based, human
[2] = tested on: Class II HLA alleles HLA-DRB1*0101, *0301, *0401, *0701, *0801, *0901, *1101, *1301, *1501; assay: HLA Binding Assay with soluble HLA molecules (competition with labeled control peptide); design: species or system human; settings: FIG. 18
Procedure: HLA Binding Assay. Binding activity was analyzed at EpiVax (Providence, Rhode Island). The binding assay used (Steere A C et al., (2006), J Exp Med, […]:961-73) yielded an indirect measure of peptide-MHC affinity. Soluble HLA molecules were loaded onto a 96-well plate with the unlabeled experimental Tregitopes and labeled control peptide. Once the binding mixture reached steady equilibrium (at 24 hours), the HLA-Tregitope complexes were captured on an ELISA plate coated with anti-human DR antibody and detected with a Europium-linked probe for the label (PerkinElmer, Waltham, MA). Time-resolved fluorescence measuring bound labeled control peptide is assessed by a SpectraMax® M5 unit (Spectramax, Radnor, PA). Binding of experimental Tregitopes was expressed as the percent inhibition of the labeled control peptide ([…]). The percent inhibition values for each experimental Tregitope (across a range of molar concentrations) were used to calculate the concentration at which it inhibits 50% of the labeled control […] specific binding, i.e. the Tregitope's IC50.
Selected experimental Tregitopes were solvated in DMSO. The diluted Tregitopes were then mixed with binding reagents in aqueous buffering solution, yielding a range of final concentrations from 100,000 nM down to 100 nM. […]

[3] = target: T1, Recombinant human cathepsin B (Homo sapiens, UniProt P07858); assay: Cathepsin B cleavage of the Val-Cit site; format: biochemical; settings: 0.01 ug rhCathepsin B, 10 uM peptide substrate, RT 15 min, mass spec
T1 construct: purchased R&D Systems 953-CY
Procedure: Recombinant human cathepsin B (catalog 953-CY of R&D Systems™) can be used to evaluate the cleavage of the Val-Cit site engineered into the Tregitope peptide. The activity assay protocol can be used according to the R&D Systems™'s recommendations with final assay conditions of 0.01 ug rhCathepsin B and 10 uM of peptide substrate. After incubation of Cathepsin B with purified peptides (at RT for 15 min). The peptide can be evaluated by mass spec using the Qstar XL Pro™.

[4] = tested on: PBMCs from lupus patients; settings: cited from earlier work
[5] = tested on: soluble HLA class II molecules (human DR molecules); settings: cited from earlier work
[6] = tested on: CD4+ effector memory T cells in PBMC; format: cell-based, human
[7] = CRIM-negative infantile Pompe disease patients; cited from earlier work

Substance: AAALVSLATAALLGHI [SEQ ID NO: 3]
- effect on CD4 proliferation [1]: little effect

Substance: AHGVFLLNSNAMDVVLQ (listed as Homo sapiens) [SEQ ID NO: 5]
- ratio of T regulatory cells to T effector cells [1]: good ratios

Substance: ILTIHFTGHSFIYGK (listed as Homo sapiens) [SEQ ID NO: 74, known Tregitope used as positive control in the TTBSA, reference compound]
- inhibition of CD4 T cell proliferation (CFSE low) [1]: successfully inhibit
- proliferation of regulatory T cells [1]: increased proliferation

Substance: KDILTLRLDVMMETE (listed as Homo sapiens) [SEQ ID NO: 4]
- initial HLA binding results compared with prediction [2]: high false negative
- effect on CD4 proliferation [1]: little effect

Substance: PEG12
- cleavage of the Val-Cit site by Cathepsin B [3]: successful cleavage

Substance: PRELSGSSPVLEETH (listed as Homo sapiens) [SEQ ID NO: 7]
- Tregitope suppressive activity [1]: demonstrated Tregitope suppressive activity
- effect on CD4 proliferation [1]: little effect
- inhibition of CD4 T cell proliferation (CFSE low) [1]: little effect

Substance: RIHMVYSKRSGKPRGYAFIEY [peptide 131-151]
- randomly selected lupus patients whose PBMCs contain T cells that proliferate in response to the peptide [4]: 40%
- binding to human DR molecules [5]: binds to a large panel of human DR molecules

Substance: SHRLLAVCALVSLATAA (listed as Homo sapiens) [SEQ ID NO: 1]
- ratio of T regulatory cells to T effector cells [1]: best ratios
- suppression of activated effector CD4+ T cells (CD4+/CD25hi/FoxP3int) reacting to Tetanus Toxoid [6]: Suppressed

Substance: Tetanus Toxoid: proliferation stimulant (Astarte Biologics) in the TTBSA [reference compound]
- CD4 proliferation caused by the stimulant [1]: caused CD4 proliferation
- activated (CD25 high) CD4 T cells also proliferating (CFSE low) [6]: approximately 90%

Substance: rhGAA: recombinant human acid alpha-glucosidase for enzyme replacement therapy
- antibody titers reactive to administered rhGAA [7]: high antibody titers
